Measured values: patent publication US5053508A, “Fused heterotricyclic imides with psychotropic activity and intermedrates thereof” (American Home Products Corporation, priority 1990, dated 1991)

These molecules were tested on dopamine receptor (assay: not given). Details: i.p.; result in words.

Row | Molecule | activity in the apomorphine-induced stereotyped behavior assay
1 | O=C1CC2(CCCC2)CC(=O)N1CCCCN1CCN(c2ncccn2)CC1 [Buspirone, 8-[4-[4-(2-pyrimidinyl)-1-piperazinyl]butyl]-8-azaspiro[4.5]decane-7,9-dione] | inactive

What follows are molecules tested on Male CD rats (assay: conditioned avoidance (shelf-jump response) test). Details: i.p.
Type: in vivo
From the text: A test designed to determine the potential antipsychotic activity of the compounds of the invention is the conditioned avoidance (shelf-jump response) test.
Male CD rats (Charles River) maintained at approximately 400-450 gm body weight are used. […] A moveable wall, controlled by a motor, determines whether the rat has access to the shelf at any time during the experiment. The experimental chamber also contains a house light and sonalert. A steel grid floor in the main chamber is wired for presentation of electric shock. Each trial consists of a fifteen-second warning tone (conditioned stimulus), continuing for an additional fifteen seconds accompanied by electric shock (unconditioned stimulus). A response (jumping onto the exposed shelf of the upper chamber) occurring during the initial fifteen-second warning tone is considered an avoidance response, while a response occurring during shock delivery is considered an escape response. Trials are presented on a fixed interval schedule of one minute. The session consists of thirty-six trials. Animals are run twice weekly with control sessions always preceding a drug run, and with at least one day intervening. Compounds are administered i.p. or p.o. at appropriate pre-treatment times to a minimum of five rats at each dose level over a range of doses.
The following experimental parameters are recorded by computer: (1) the number of avoidance responses, (2) the number of escape responses, and (3) the number of trials in which no response occurred.
Response counts are summed over all subjects at a given dose. […] This number is expressed as a percentage of the total trials. Control performance is arbitrarily assigned a value of 100% for avoidance responding and the dose calculated to produce a 50% block in avoidance responding (AB50) is obtained from a dose-effect regression line fitted by the method of least squares. Potential antipsychotic compounds suppress avoidance responding and increase escape responding.

Row | Molecule | Active at [mg/kg]
2 | 6-[4-[4-2-pyrimidinyl)-1-piperazinyl]butyl]-3a,4,4a,7a,8,8a-hexahydro-3-methyl-4,8-methano-5H-pyrrolo[3,4-f]-1,2-benzisoxazole-5,7(6H)-dione, dihydrochloride, hydrate [Example 8] | 40
3 | Cl.O=C1C2C3CS(=O)(=O)CC3C2C(=O)N1CCCCN1CCN(c2cncc(Cl)n2)CC1 (stereo not drawn) [Example 1, 5-[4-[4-(6-chloro-2-pyrazinyl)-1-piperazinyl]butyl]tetrahydro-1H-thieno[3',4':3,4]cyclobuta[1,2-c]pyrrole-4,6(3H,5H)-dione 2,2 dioxide hydrochloride] | 40
4 | Cl.O=C1C2C3CS(=O)(=O)CC3C2C(=O)N1CCCCN1CCN(c2nccnc2Cl)CC1 (stereo not drawn) [Example 2, 5-[4-[4-(3-chloro-2-pyrazinyl)-1-piperazinyl]butyl]tetrahydro-1H-thieno[3',4':3,4]cyclobuta[1,2-c]pyrrole-4,6(3H,5H)dione 2,2-dioxide, hydrochloride] | 40
5 | CC1=NOC2C3CC(C12)C1C(=O)N(CCCCN2CCN(c4cncc(Cl)n4)CC2)C(=O)C31.O=C(O)C(=O)O (stereo not drawn) [Example 6, 6-[4-[4-(6-chloro-2-pyrazinyl)-1-piperazinyl]butyl]-3a,4,4a,7a,8,8a-hexahydro-3-methyl-4,8-methano-5H-pyrrolo[3,4-f]-1,2-benzisoxazole-5,7(6H)-dione, ethanedioate (1:1)] | 40
6 | CC1=NOC2C3CC(C12)C1C(=O)N(CCCCN2CCN(c4cnccn4)CC2)C(=O)C31 (stereo not drawn) [Example 7, 6-[4-[4-(2-pyrazinyl)-1-piperazinyl]butyl]-3a,4,4a,7a,8,8a-hexahydro-3-methyl-4,8-methano-5H-pyrrolo[3,4-f]-1,2-benzisoxazole-5,7(6H)-dione, ethanedioate (1:1), hemiethanolate] | 40
7 | CC1=NOC2C3CCC(C12)C1C(=O)N(CCCCN2CCN(c4ncccn4)CC2)C(=O)C31.O=C(O)C(=O)O (stereo not drawn) [Example 10, 6-[4-[4-(2-pyrimidinyl)-1-piperazinyl]butyl]-3a,4,4a,7a,8,8a-hexahydro-3-methyl-4,8-ethano-5H-pyrrolo[3,4-f]-1,2-benzisoxazole-5,7(6H)-dione, ethanedioate (1:1)] | 40
8 | CC1=NOC2C3CCC(C12)C1C(=O)N(CCCCN2CCN(c4cnccn4)CC2)C(=O)C31.O=C(O)C(=O)O (stereo not drawn) [Example 11, 6-[4-[4-(2-pyrazinyl)-1-piperazinyl]butyl]-3a,4,4a,7a,8,8a-hexahydro-3-methyl-4,8-ethano-5H-pyrrolo[3,4-f]-1,2-benzisoxazole-5,7(6H)-dione, ethanedioate (1:1)] | 40

Same assay, conditions: p.o.

Row | Molecule | Active at [mg/kg]
9 | Cl.O=C1C2C3CS(=O)(=O)CC3C2C(=O)N1CCCCN1CCN(c2cncc(Cl)n2)CC1 (stereo not drawn) [Example 1, 5-[4-[4-(6-chloro-2-pyrazinyl)-1-piperazinyl]butyl]tetrahydro-1H-thieno[3',4':3,4]cyclobuta[1,2-c]pyrrole-4,6(3H,5H)-dione 2,2 dioxide hydrochloride] | 40
